Data from patent US12077503B2, “Substituted cyclic amides and their use as herbicides” (FMC CORPORATION, priority 2015, dated 2024).

What was measured:
Format in all cases: in vivo
[1] = system: barnyardgrass (Echinochloa crus-galli); experiment: Test G Pre-Emergence Protocol; settings: Echinochloa crus-galli, pre-emergence, 312 h, evaluated after 13 days; for pest or weed control at 15.625 g/ha: 15.625 g ai/ha; for pest or weed control at 15.625 g/ha / pest or weed control at 250 g/ha: read-out: Barnyardgrass damage rating (100=total damage to plant; 0=no damage to plant); for pest or weed control at 62.5 g/ha: 62.5 g ai/ha, 100=total damage to plant, 0=no damage to plant, read-out: Barnyardgrass damage rating; for pest or weed control at 250 g/ha: 250 g ai/ha
Method in brief: (§1)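 Visual injury (0–100) at day 13 after a single pre-emergence spray. Rates: 15.625, 62.5, 250 g/ha in acetone–water 50:50 with 0.5% Tween 20. Growth conditions: 24/16° C, 14 h light, 65% humidity.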

corn (Zea mays) [2] = experiment: Test G Pre-Emergence Protocol; settings: Zea mays, pre-emergence, 312 h, evaluated after 13 days; for plant injury at 15.625 g/ha: 15.625 g ai/ha; for plant injury at 15.625 g/ha / plant injury at 250 g/ha: read-out: Corn damage rating (100=total damage to plant; 0=no damage to plant); for plant injury at 62.5 g/ha: 62.5 g ai/ha, 100=total damage to plant, 0=no damage to plant, read-out: Corn damage rating; for plant injury at 250 g/ha: 250 g ai/ha
Method in brief: as §1

[3] = system: giant foxtail (Setaria faberi); experiment: Test G Pre-Emergence Protocol; settings: Setaria faberi, pre-emergence, 312 h, evaluated after 13 days; for pest or weed control at 15.625 g/ha: 15.625 g ai/ha; for pest or weed control at 15.625 g/ha / pest or weed control at 250 g/ha: read-out: Foxtail, Giant damage rating (100=total damage to plant; 0=no damage to plant); for pest or weed control at 62.5 g/ha: 62.5 g ai/ha, 100=total damage to plant, 0=no damage to plant, read-out: Foxtail, Giant damage rating; for pest or weed control at 250 g/ha: 250 g ai/ha
Method in brief: as §1

[4] = system: ivy-leaved morning glory (Ipomoea hederacea); experiment: Test G Pre-Emergence Protocol; settings: Ipomoea, pre-emergence, 312 h, evaluated after 13 days; for pest or weed control at 15.625 g/ha: 15.625 g ai/ha; for pest or weed control at 15.625 g/ha / pest or weed control at 250 g/ha: read-out: Morningglory, Ivy-leaved damage rating (100=total damage to plant; 0=no damage to plant); for pest or weed control at 62.5 g/ha: 62.5 g ai/ha, 100=total damage to plant, 0=no damage to plant, read-out: Morningglory, Ivy-leaved damage rating; for pest or weed control at 250 g/ha: 250 g ai/ha
Method in brief: as §1

[5] = system: redroot pigweed (Amaranthus retroflexus); experiment: Test G Pre-Emergence Protocol; settings: Amaranthus retroflexus, pre-emergence, 312 h, evaluated after 13 days; for pest or weed control at 15.625 g/ha: 15.625 g ai/ha; for pest or weed control at 15.625 g/ha / pest or weed control at 250 g/ha: read-out: Pigweed, Redroot damage rating (100=total damage to plant; 0=no damage to plant); for pest or weed control at 62.5 g/ha: 62.5 g ai/ha, 100=total damage to plant, 0=no damage to plant, read-out: Pigweed, Redroot damage rating; for pest or weed control at 250 g/ha: 250 g ai/ha
Method in brief: as §1

[6] = system: velvetleaf (Abutilon theophrasti); experiment: Test G Pre-Emergence Protocol; settings: Abutilon theophrasti, pre-emergence, 312 h, evaluated after 13 days; for pest or weed control at 15.625 g/ha: 15.625 g ai/ha; for pest or weed control at 15.625 g/ha / pest or weed control at 250 g/ha: read-out: Velvetleaf damage rating (100=total damage to plant; 0=no damage to plant); for pest or weed control at 62.5 g/ha: 62.5 g ai/ha, 100=total damage to plant, 0=no damage to plant, read-out: Velvetleaf damage rating; for pest or weed control at 250 g/ha: 250 g ai/ha
Method in brief: as §1

[7] = system: barnyardgrass (Echinochloa crus-galli); experiment: Test G Post-Emergence Protocol; settings: Echinochloa crus-galli, post-emergence, 312 h, read-out: Barnyardgrass damage rating; for pest or weed control at 15.625 g/ha: 15.625 g ai/ha, evaluated after 13 days (100=total damage to plant; 0=no damage to plant); for pest or weed control at 62.5 g/ha: 62.5 g ai/ha; for pest or weed control at 62.5 g/ha / pest or weed control at 250 g/ha: evaluated after 13 days, 100=total damage to plant, 0=no damage to plant; for pest or weed control at 250 g/ha: 250 g ai/ha
Method in brief: (§2)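 Post-emergence herbicidal damage, scored visually 0–100 at 13 days. Application at 15.625, 62.5 or 250 g/ha onto 8-day-old plants grown under glasshouse control.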

corn (Zea mays) [8] = experiment: Test G Post-Emergence Protocol; settings: Zea mays, post-emergence, 312 h, read-out: Corn damage rating; for plant injury at 15.625 g/ha: 15.625 g ai/ha, evaluated after 13 days (100=total damage to plant; 0=no damage to plant); for plant injury at 62.5 g/ha: 62.5 g ai/ha; for plant injury at 62.5 g/ha / plant injury at 250 g/ha: evaluated after 13 days, 100=total damage to plant, 0=no damage to plant; for plant injury at 250 g/ha: 250 g ai/ha
Method in brief: as §2

[9] = system: giant foxtail (Setaria faberi); experiment: Test G Post-Emergence Protocol; settings: Setaria faberi, post-emergence, 312 h, read-out: Foxtail, Giant damage rating; for pest or weed control at 15.625 g/ha: 15.625 g ai/ha, evaluated after 13 days (100=total damage to plant; 0=no damage to plant); for pest or weed control at 62.5 g/ha: 62.5 g ai/ha; for pest or weed control at 62.5 g/ha / pest or weed control at 250 g/ha: evaluated after 13 days, 100=total damage to plant, 0=no damage to plant; for pest or weed control at 250 g/ha: 250 g ai/ha
Method in brief: as §2

[10] = system: ivy-leaved morning glory (Ipomoea hederacea); experiment: Test G Post-Emergence Protocol; settings: Ipomoea, post-emergence, 312 h, read-out: Morningglory, Ivy-leaved damage rating; for pest or weed control at 15.625 g/ha: 15.625 g ai/ha, evaluated after 13 days (100=total damage to plant; 0=no damage to plant); for pest or weed control at 62.5 g/ha: 62.5 g ai/ha; for pest or weed control at 62.5 g/ha / pest or weed control at 250 g/ha: evaluated after 13 days, 100=total damage to plant, 0=no damage to plant; for pest or weed control at 250 g/ha: 250 g ai/ha
Method in brief: as §2

[11] = system: redroot pigweed (Amaranthus retroflexus); experiment: Test G Post-Emergence Protocol; settings: Amaranthus retroflexus, post-emergence, 312 h, read-out: Pigweed, Redroot damage rating; for pest or weed control at 15.625 g/ha: 15.625 g ai/ha, evaluated after 13 days (100=total damage to plant; 0=no damage to plant); for pest or weed control at 62.5 g/ha: 62.5 g ai/ha; for pest or weed control at 62.5 g/ha / pest or weed control at 250 g/ha: evaluated after 13 days, 100=total damage to plant, 0=no damage to plant; for pest or weed control at 250 g/ha: 250 g ai/ha
Method in brief: as §2

[12] = system: velvetleaf (Abutilon theophrasti); experiment: Test G Post-Emergence Protocol; settings: Abutilon theophrasti, post-emergence, 312 h, read-out: Velvetleaf damage rating; for pest or weed control at 15.625 g/ha: 15.625 g ai/ha, evaluated after 13 days (100=total damage to plant; 0=no damage to plant); for pest or weed control at 62.5 g/ha: 62.5 g ai/ha; for pest or weed control at 62.5 g/ha / pest or weed control at 250 g/ha: evaluated after 13 days, 100=total damage to plant, 0=no damage to plant; for pest or weed control at 250 g/ha: 250 g ai/ha
Method in brief: as §2

SMILES | pest or weed control at 15.625 g/ha [1] | pest or weed control at 62.5 g/ha [1] | pest or weed control at 250 g/ha [1] | plant injury at 15.625 g/ha (corn (Zea mays) [2]) | plant injury at 62.5 g/ha (corn (Zea mays) [2]) | plant injury at 250 g/ha (corn (Zea mays) [2]) | pest or weed control at 15.625 g/ha [3] | pest or weed control at 62.5 g/ha [3] | pest or weed control at 250 g/ha [3] | pest or weed control at 15.625 g/ha [4] | pest or weed control at 62.5 g/ha [4] | pest or weed control at 250 g/ha [4] | pest or weed control at 15.625 g/ha [5] | pest or weed control at 62.5 g/ha [5] | pest or weed control at 250 g/ha [5] | pest or weed control at 15.625 g/ha [6] | pest or weed control at 62.5 g/ha [6] | pest or weed control at 250 g/ha [6] | pest or weed control at 15.625 g/ha [7] | pest or weed control at 62.5 g/ha [7] | further results
Cc1cc(C)cc([C@H]2CN(C)C(=O)[C@@H]2C(=O)Nc2ccccc2S(C)(=O)=O)c1 (racemic) [Compound 1727] | 30% | 40% | 80% | 0% | 0% | 0% | 50% | 60% | 80% | 0% | 0% | 10% | 0% | 0% | 30% | 0% | 0% | 0% | 20% | 70% | pest or weed control at 250 g/ha [7]: 70%; plant injury at 15.625 g/ha (corn (Zea mays) [8]): 0%; plant injury at 62.5 g/ha (corn (Zea mays) [8]): 0%; plant injury at 250 g/ha (corn (Zea mays) [8]): 10%; pest or weed control at 15.625 g/ha [9]: 30%; pest or weed control at 62.5 g/ha [9]: 80%; pest or weed control at 250 g/ha [9]: 80%; pest or weed control at 15.625 g/ha [10]: 0%; pest or weed control at 62.5 g/ha [10]: 30%; pest or weed control at 250 g/ha [10]: 50%; pest or weed control at 15.625 g/ha [11]: 0%; pest or weed control at 62.5 g/ha [11]: 0%; pest or weed control at 250 g/ha [11]: 0%; pest or weed control at 15.625 g/ha [12]: 0%; pest or weed control at 62.5 g/ha [12]: 0%; pest or weed control at 250 g/ha [12]: 10%
CN1C[C@H](c2ccc(C(F)(F)F)cc2)[C@@H](C(=O)Nc2cccc3c2S(=O)(=O)CC3)C1=O (racemic) [Compound 1737] | 0% | 0% | 0% | 0% | 0% | 0% | 0% | 0% | 0% | 0% | 0% | 0% | 0% | 0% | 0% | 0% | 0% | 0% | 0% | 0% | pest or weed control at 250 g/ha [7]: 0%; plant injury at 15.625 g/ha (corn (Zea mays) [8]): 0%; plant injury at 62.5 g/ha (corn (Zea mays) [8]): 0%; plant injury at 250 g/ha (corn (Zea mays) [8]): 0%; pest or weed control at 15.625 g/ha [9]: 0%; pest or weed control at 62.5 g/ha [9]: 0%; pest or weed control at 250 g/ha [9]: 0%; pest or weed control at 15.625 g/ha [10]: 0%; pest or weed control at 62.5 g/ha [10]: 0%; pest or weed control at 250 g/ha [10]: 0%; pest or weed control at 15.625 g/ha [11]: 0%; pest or weed control at 62.5 g/ha [11]: 0%; pest or weed control at 250 g/ha [11]: 0%; pest or weed control at 15.625 g/ha [12]: 0%; pest or weed control at 62.5 g/ha [12]: 0%; pest or weed control at 250 g/ha [12]: 0%
